According to the supplement of paper PMC10307832:

Tests used:
Assay in all cases: relative viability (nuclei count vs DMSO), 5 days (fraction); higher = more cells survive
[1] = compound: CS(=O)(=O)c1ccc(-c2cnc(N)c(C(=O)Nc3ccccc3)n2)cc1 [VE-821] + COc1cccc2cc(-c3nc([C@H]4CC[C@H](C(=O)O)CC4)n4ncnc(N)c34)[nH]c12 [OSI-027] (partner 0.5 µM)
Outline: (§1)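 Relative viability divides the nuclei count in treated wells by that in vehicle wells. Lung cancer cell lines were seeded in 1536-well plates, dosed by pin tool the next day, and fixed and stained after 5 days in one step with final 0.05% Triton X-100, 1% formaldehyde and 1 ug/ml Hoechst. Dosing was a single drug or a fixed anchor-drug dose plus five library-drug doses (not always all listed) in √10 steps, and values are medians of duplicate plates imaged at 4×.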

[2] = compound: N#CC[C@H](C1CCCC1)n1cc(-c2ncnc3[nH]ccc23)cn1 [Ruxolitinib] + COc1cccc2cc(-c3nc([C@H]4CC[C@H](C(=O)O)CC4)n4ncnc(N)c34)[nH]c12 [OSI-027] (partner 0.5 µM)
Outline: as §1

[3] = compound: N#CC[C@H](C1CCCC1)n1cc(-c2ncnc3[nH]ccc23)cn1 [Ruxolitinib] + N=C(N)NC(=N)NCCc1ccccc1 [Phenformin] (partner 250 µM)
Outline: as §1

[4] = compound: CS(=O)(=O)c1ccc(C(=O)Nc2ccc(Cl)c(-c3ccccn3)c2)c(Cl)c1 [Vismodegib] + NC(=O)Nc1cc(-c2cccc(F)c2)sc1C(=O)N[C@H]1CCCNC1 [AZD7762] (partner 0.2 µM)
Outline: as §1

Row | Cell Line | relative viability ([1]; first compound 0.08 µM) | relative viability ([1]; first compound 0.253 µM) | relative viability ([1]; first compound 0.8 µM) | relative viability ([1]; first compound 2.53 µM) | relative viability ([1]; first compound 8 µM) | relative viability ([2]; first compound 0.08 µM) | relative viability ([2]; first compound 0.8 µM) | relative viability ([2]; first compound 2.53 µM) | relative viability ([2]; first compound 8 µM) | relative viability ([3]; first compound 0.08 µM) | relative viability ([3]; first compound 0.253 µM) | relative viability ([3]; first compound 0.8 µM) | relative viability ([3]; first compound 2.53 µM) | relative viability ([3]; first compound 8 µM) | relative viability ([4]; first compound 0.08 µM) | relative viability ([4]; first compound 0.253 µM) | relative viability ([4]; first compound 0.8 µM) | relative viability ([4]; first compound 2.53 µM) | relative viability ([4]; first compound 8 µM) | relative viability ([2]; first compound 0.253 µM)
1 | NCI-H520 | 0.257 | 0.257 | 0.195 | 0.278 | 0.208 | 0.317 | 0.278 | 0.239 | 0.326 | 0.565 | 0.323 | 0.717 | 0.483 | 0.58 |  |  |  |  |  | 
2 | NCI-H1355 | 0.443 | 0.346 | 0.375 | 0.442 | 0.307 | 0.382 | 0.388 | 0.373 | 0.318 | 0.418 | 0.418 | 0.46 | 0.394 | 0.416 | 0.763 | 0.694 | 0.806 | 0.744 | 0.722 | 0.328
3 | NCI-H1563 | 0.736 | 0.727 | 0.713 | 0.751 | 0.718 | 0.803 | 0.714 | 0.658 | 0.675 | 0.667 | 0.69 | 0.643 | 0.593 | 0.602 |  |  |  |  |  | 0.721
4 | NCI-H1651 | 0.781 | 0.629 | 0.578 | 0.686 | 0.521 | 0.774 | 0.842 | 0.659 | 0.723 | 0.313 | 0.275 | 0.351 | 0.3 | 0.354 | 0.512 | 0.454 | 0.535 | 0.36 | 0.433 | 0.718
5 | HCC-44 | 0.498 | 0.427 | 0.634 | 0.563 | 0.556 | 0.537 | 0.634 | 0.457 | 0.333 | 0.103 | 0.143 | 0.228 | 0.168 | 0.216 | 1.06 | 1.04 | 0.932 | 1.01 | 1.04 | 0.426
6 | NCI-H2228 | 0.636 | 0.459 | 0.628 | 0.695 | 0.2 | 0.629 | 0.743 | 0.446 | 0.289 | 0.323 | 0.299 | 0.311 | 0.264 | 0.273 |  |  |  |  |  | 0.419
7 | COR-L23 | 0.9 | 0.751 | 0.797 | 0.766 | 0.63 | 0.806 | 0.868 | 0.729 | 0.645 | 0.457 | 0.407 | 0.45 | 0.439 | 0.354 |  |  |  |  |  | 0.743
8 | SK-MES-1 | 0.665 | 0.558 | 0.53 | 0.533 | 0.233 | 0.676 | 0.702 | 0.534 | 0.512 | 0.708 | 0.641 | 0.663 | 0.593 | 0.495 |  |  |  |  |  | 0.587
9 | A549 |  |  |  |  |  |  |  |  |  | 0.0714 | 0.144 | 0.198 | 0.127 | 0.15 |  |  |  |  |  | 
10 | NCI-H1648 | 0.291 | 0.25 | 0.244 | 0.246 | 0.239 |  | 0.257 | 0.308 | 0.279 |  |  |  |  |  | 0.811 | 0.717 | 0.833 | 0.693 | 0.696 | 0.269
11 | NCI-H1623 | 0.48 | 0.489 | 0.543 | 0.454 | 0.379 | 0.48 | 0.469 | 0.439 | 0.576 | 0.525 | 0.608 | 0.574 | 0.637 | 0.343 |  |  |  |  |  | 0.461
12 | NCI-H661 | 0.805 | 0.743 | 0.783 | 0.758 | 0.663 | 0.752 | 0.834 | 0.664 | 0.666 | 0.287 | 0.256 | 0.303 | 0.29 | 0.263 |  |  |  |  |  | 0.664
13 | SW 1573 | 0.549 | 0.853 | 0.649 | 0.823 | 0.453 | 0.607 | 0.815 | 0.386 | 0.573 | 0.419 | 0.324 | 0.417 | 0.308 | 0.369 |  |  |  |  |  | 0.482
14 | NCI-H2009 | 0.693 | 0.557 | 0.598 | 0.618 | 0.318 | 0.668 | 0.789 | 0.54 | 0.281 | 0.414 | 0.443 | 0.535 | 0.423 | 0.297 |  |  |  |  |  | 0.609
15 | NCI-H1703 |  |  |  |  |  |  |  |  |  |  |  |  |  |  | 0.139 |  | 0.134 | 0.104 | 0.152 | 
16 | NCI-H2023 | 0.392 | 0.311 | 0.274 | 0.274 | 0.11 | 0.455 | 0.556 | 0.343 | 0.411 | 0.383 | 0.373 | 0.428 | 0.358 | 0.328 |  |  |  |  |  | 0.298
17 | SK-LU-1 | 0.316 | 0.316 | 0.312 | 0.268 | 0.193 | 0.413 | 0.393 | 0.295 | 0.291 | 0.551 | 0.529 | 0.637 | 0.433 | 0.422 |  |  |  |  |  | 0.36
18 | NCI-H1650 | 0.757 | 0.542 | 0.546 | 0.613 | 0.415 |  | 0.98 | 0.769 | 0.641 |  | 0.315 | 0.455 | 0.388 | 0.331 |  |  |  |  |  | 0.651
19 | COR-L 105 | 0.741 | 0.551 | 0.647 | 0.642 | 0.695 | 0.535 | 0.705 | 0.667 | 0.531 | 0.409 | 0.495 | 0.425 | 0.392 | 0.374 |  |  |  |  |  | 0.536
